In patent publication US20060229305A1, “Tetrahydronaphthalene derivatives, process for their production and their use as anti-inflammatory agents” (priority 2005, published 2006):

What was measured:
[1] = target: T1, glucocorticoid receptor (GR) (Homo sapiens, UniProt P04150); assay: Binding to the glucocorticoid receptor, recombinant receptor in Sf9 cytosol, vs [3H]-dexamethasone; conditions: cytosol of Sf9 cells, [3H]-dexamethasone as reference
T1 construct: made in house; host or cells: Sf9 cells infected with recombinant baculovirus (cytosol preparation)
T1 sequence (P04150 1-777): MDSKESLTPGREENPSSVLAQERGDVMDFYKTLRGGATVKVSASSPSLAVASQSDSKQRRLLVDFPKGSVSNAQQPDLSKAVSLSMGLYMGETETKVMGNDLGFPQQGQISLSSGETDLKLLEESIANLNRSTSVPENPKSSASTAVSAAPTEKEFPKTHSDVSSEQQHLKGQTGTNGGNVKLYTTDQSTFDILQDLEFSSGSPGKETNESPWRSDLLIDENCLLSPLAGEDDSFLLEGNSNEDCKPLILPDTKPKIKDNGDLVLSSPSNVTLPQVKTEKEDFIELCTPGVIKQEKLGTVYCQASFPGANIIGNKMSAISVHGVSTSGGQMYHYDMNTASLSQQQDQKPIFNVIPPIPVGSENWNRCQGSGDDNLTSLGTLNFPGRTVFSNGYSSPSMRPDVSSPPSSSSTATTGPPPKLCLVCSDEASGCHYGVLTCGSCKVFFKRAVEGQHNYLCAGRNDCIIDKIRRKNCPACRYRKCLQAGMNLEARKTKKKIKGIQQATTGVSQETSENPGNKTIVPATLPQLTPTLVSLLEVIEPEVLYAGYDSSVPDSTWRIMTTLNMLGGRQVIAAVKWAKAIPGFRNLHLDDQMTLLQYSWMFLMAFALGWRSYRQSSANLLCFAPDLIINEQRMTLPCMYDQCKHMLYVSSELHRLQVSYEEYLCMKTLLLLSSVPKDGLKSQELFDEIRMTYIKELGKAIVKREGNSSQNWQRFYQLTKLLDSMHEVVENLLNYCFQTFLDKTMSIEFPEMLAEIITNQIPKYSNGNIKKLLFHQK
Text: (§1) The binding of the substances to the glucocorticoid receptor (GR) and other steroid-hormone receptors (mineral corticoid receptor (MR), progesterone receptor (PR) and androgen receptor (AR)) is examined with the aid of recombinantly produced receptors. Cytosol preparations of Sf9 cells, which had been infected with recombinant baculoviruses that code for the GR, are used for the binding studies. In comparison to the reference substance [^3H]-dexamethasone, the substances show a high affinity to the GR.

[2] = target: T2, progesterone receptor (PR) (Homo sapiens, UniProt P06401); assay: Binding to the progesterone receptor, recombinantly produced receptor
T2 construct: made in house
T2 sequence (P06401 1-933): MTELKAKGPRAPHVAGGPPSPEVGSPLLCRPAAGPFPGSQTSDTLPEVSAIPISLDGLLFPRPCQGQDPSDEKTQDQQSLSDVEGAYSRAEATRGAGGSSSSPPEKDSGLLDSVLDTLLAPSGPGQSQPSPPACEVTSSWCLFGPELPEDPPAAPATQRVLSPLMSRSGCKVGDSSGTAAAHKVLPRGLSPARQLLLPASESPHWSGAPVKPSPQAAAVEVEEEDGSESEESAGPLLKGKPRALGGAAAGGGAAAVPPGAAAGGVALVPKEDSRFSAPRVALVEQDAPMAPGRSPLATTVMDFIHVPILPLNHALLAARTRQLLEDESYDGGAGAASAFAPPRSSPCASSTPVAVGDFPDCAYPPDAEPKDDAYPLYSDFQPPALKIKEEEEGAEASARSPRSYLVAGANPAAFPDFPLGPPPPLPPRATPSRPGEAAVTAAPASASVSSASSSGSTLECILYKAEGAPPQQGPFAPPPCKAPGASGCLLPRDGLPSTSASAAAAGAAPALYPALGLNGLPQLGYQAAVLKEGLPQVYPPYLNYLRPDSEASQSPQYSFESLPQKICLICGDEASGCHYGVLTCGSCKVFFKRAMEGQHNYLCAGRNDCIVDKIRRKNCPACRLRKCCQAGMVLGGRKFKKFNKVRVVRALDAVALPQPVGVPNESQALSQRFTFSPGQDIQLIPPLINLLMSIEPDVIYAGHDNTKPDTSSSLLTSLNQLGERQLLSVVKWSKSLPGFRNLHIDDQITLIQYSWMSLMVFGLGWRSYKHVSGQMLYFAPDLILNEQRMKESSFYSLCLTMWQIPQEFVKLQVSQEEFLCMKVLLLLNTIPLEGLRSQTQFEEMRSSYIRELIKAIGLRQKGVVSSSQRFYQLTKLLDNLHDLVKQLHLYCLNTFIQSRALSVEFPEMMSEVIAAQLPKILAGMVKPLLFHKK
Text: as §1

[3] = system: cytokine IL-8 secretion, human monocyte cell line THP-1; assay: Inhibition of LPS-triggered IL-8 secretion in THP-1 cells (ELISA); assay type: cell-based
Protocol: The concentration of the cytokines was determined in the supernatant by means of commercially available ELISA kits.

- IC50 [1]: 36 nM
- IC50 [2]: > 1000 nM
- IC50 ([3]; Homo sapiens, LPS-triggered IL-8 secretion, THP-1, ELISA of supernatant, read-out: IC50(IL8)): 130 nM
SMILES: Cc1ncc2c(NC3c4ccc(F)c(O)c4C(C)C(C)C3(O)C(F)(F)F)cc(F)cc2n1 (racemic) [Example 3, 2-Fluoro-5-[(7-fluoro-2-methylquinazolin-5-yl)amino]-5,6,7,8-tetrahydro-7,8-dimethyl-6-(trifluoromethyl)naphthalene-1,6-diol]
- efficiency relative to [3H]-dexamethasone as a standard ([3]; IL-8 inhibition, THP-1, LPS): 80%
